Data as given in ChEMBL document CHEMBL4651402, “Screening of ~5500 FDA-approved drugs and clinical candidates for anti-SARS-CoV-2 activity” (2021).
pIC50: −log10 of the molar value.

System: SARS-CoV-2
Assay: microbe, parasite or virus in culture
Details: Severe acute respiratory syndrome coronavirus 2, Vero C1008, 48 h; for IC50: read-out: pIC50 (converted)

Structure (SMILES) | pIC50 | IC50
CCOC(=O)c1c(N)sc2c1CCN(Cc1ccccc1)C2 [TINORIDINE] | < 4.70 | > 20 µM
Clc1ccc(C(Cn2ccnc2)OCc2ccsc2Cl)c(Cl)c1 (configuration not stated) [TIOCONAZOLE] | < 4.70 | > 20 µM
CC(S)C(=O)NCC(=O)O (configuration not stated) [TIOPRONIN] | < 4.70 | > 20 µM
C/N=C(/NC#N)NCCSCc1csc(NC(=N)N)n1 [TIOTIDINE] | < 4.70 | > 20 µM
C[N+]1(C)[C@@H]2C[C@@H](OC(=O)C(O)(c3cccs3)c3cccs3)C[C@H]1[C@@H]1O[C@@H]12 [TIOTROPIUM] | < 4.70 | > 20 µM
CCOC(=O)C(=O)Nc1nc(-c2ccc(OC)cc2)cs1 [TIOXAMAST] | < 4.70 | > 20 µM
O=c1oc2cc(O)ccc2s1 [TIOXOLONE] | < 4.70 | > 20 µM
Cc1cnc2c(c1)CCCC2C(N)=S (configuration not stated) [TIQUINAMIDE] | < 4.70 | > 20 µM
CCOC(=O)Nc1ccc2c(c1)N(C(=O)CN(C)C)c1ccccc1CC2 [TIRACIZINE] | < 4.70 | > 20 µM
O=C(Cc1ccc(-c2ccc(OCCN3CCOCC3)cc2)cn1)NCc1ccccc1 [TIRBANIBULIN] | < 4.70 | > 20 µM
COc1cc2nccc(Oc3ccc(NC(=O)Nc4cc(C)on4)c(Cl)c3)c2cc1OC [TIVOZANIB] | < 4.70 | > 20 µM
COc1ccc2c(c1)C=C1Cn3c-2c(C2CCCCC2)c2ccc(cc23)C(=O)NS(=O)(=O)N(C)CCOCCN(C)C1=O [TMC-647055] | < 4.70 | > 20 µM
Cc1cccc(C)c1NC(=O)C(C)N (configuration not stated) [TOCAINIDE] | < 4.70 | > 20 µM
CCOC(=O)NNc1nncc2ccccc12 [TODRALAZINE] | < 4.70 | > 20 µM
C[C@@H]1CCN(C(=O)CC#N)C[C@@H]1N(C)c1ncnc2[nH]ccc12 [TOFACITINIB] | < 4.70 | > 20 µM
CNCCOC(c1ccccc1)c1ccccc1C (configuration not stated) [TOFENACIN] | < 4.70 | > 20 µM
Cc1ccccc1OCC(O)CNCCOc1ccc(C(N)=O)cc1 (configuration not stated) [TOLAMOLOL] | < 4.70 | > 20 µM
Cc1ccc(S(=O)(=O)NC(=O)NN2CCCCCC2)cc1 [TOLAZAMIDE] | < 4.70 | > 20 µM

Structure (SMILES) | pIC50 | IC50
c1ccc(CC2=NCCN2)cc1 [TOLAZOLINE] | < 4.70 | > 20 µM
CCCCNC(=O)NS(=O)(=O)c1ccc(C)cc1 [TOLBUTAMIDE] | < 4.70 | > 20 µM
Cc1ccc(C(=O)c2cc(O)c(O)c([N+](=O)[O-])c2)cc1 [TOLCAPONE] | < 4.70 | > 20 µM
Cc1cccc(N(C)C(=S)Oc2ccc3c(c2)C2CCC3C2)c1 (configuration not stated) [TOLCICLATE] | < 4.70 | > 20 µM
Cc1c(Cl)cccc1Nc1ccccc1C(=O)O [TOLFENAMIC ACID] | < 4.70 | > 20 µM
Cc1cccc(Oc2cnc(=O)[nH]c2)c1 [TOLIMIDONE] | < 4.70 | > 20 µM
Cc1cccc(OCC(O)CNC(C)C)c1 (configuration not stated) [TOLIPROLOL] | < 4.70 | > 20 µM
Cc1ccc(C(=O)c2ccc(CC(=O)O)n2C)cc1 [TOLMETIN] | < 4.70 | > 20 µM
Cc1cccc(N(C)C(=S)Oc2ccc3ccccc3c2)c1 [TOLNAFTATE] | < 4.70 | > 20 µM
Cc1ccc(NC2=NCCN2)c(Cl)c1 [TOLONIDINE] | < 4.70 | > 20 µM
Cc1cccc(N2CC(CO)OC2=O)c1 (configuration not stated) [TOLOXATONE] | < 4.70 | > 20 µM
Cc1ccc(O)c([C@H](CCN(C(C)C)C(C)C)c2ccccc2)c1 [TOLTERODINE] | < 4.70 | > 20 µM
Cc1cc(-n2c(=O)[nH]c(=O)n(C)c2=O)ccc1Oc1ccc(SC(F)(F)F)cc1 [TOLTRAZURIL] | < 4.70 | > 20 µM
Cc1ccccc1C(=O)Nc1ccc(C(=O)N2CCCC(O)c3cc(Cl)ccc32)c(C)c1 (configuration not stated) [TOLVAPTAN] | < 4.70 | > 20 µM
C[C@H]1CC[C@]2(NC1)O[C@H]1C[C@H]3[C@@H]4CC[C@H]5C[C@@H](O)CC[C@]5(C)[C@H]4CC[C@]3(C)[C@H]1[C@@H]2C [TOMATIDINE] | < 4.70 | > 20 µM
CN(C)c1cccc2c(S(=O)(=O)Nc3ccc(NC(=O)C(C)(C)CO)cc3)cccc12 [TOMEGLOVIR] | < 4.70 | > 20 µM
CCCc1c(OCCCCc2nnn[nH]2)ccc(C(C)=O)c1O [TOMELUKAST] | < 4.70 | > 20 µM
CC1(C)O[C@@H]2[C@@H](CO[C@@]3(COS(N)(=O)=O)OC(C)(C)O[C@@H]23)O1 [TOPIRAMATE] | < 4.70 | > 20 µM
